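Five concentrations, 48 hours, 96-well plates. Abbreviation: GI50, concentration required for 50% inhibition of growth.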 Activity calls are given as the source filed them. Rule as the data show it: active = GI50 up to about 1.1 µM and inactive = higher.
What was measured:
Assay in all cases: DTP human tumour cell line panel, 48 h
A498 = test system: A498
ACHN = test system: ACHN
BT-549 = test system: BT-549
CAKI-1 = test system: CAKI-1
DU-145 = test system: DU-145
EKVX = test system: EKVX
HCT-116 = test system: HCT-116
MCF7 = test system: MCF7
MDA-MB-435 = test system: MDA-MB-435
MDA-N = test system: MDA-N
NCI-H226 = test system: NCI-H226
OVCAR-5 = test system: OVCAR-5
PC-3 = test system: PC-3
RPMI-8226 = test system: RPMI-8226
SK-MEL-2 = test system: SK-MEL-2
SN12C = test system: SN12C
TK-10 = test system: TK-10
UACC-62 = test system: UACC-62
HL-60 = test system: HL-60

Measured: GI50

O/N=C1/Nc2cc(Cl)ccc2C(=S)N2CSCC12 (stereo not drawn)
inactive: A498 > 100 µM | ACHN > 100 µM | BT-549 > 100 µM | CAKI-1 > 100 µM | DU-145 > 100 µM | EKVX > 100 µM | HCT-116 > 100 µM | MCF7 > 100 µM | MDA-MB-435 > 100 µM | MDA-N > 100 µM | NCI-H226 > 100 µM | OVCAR-5 > 100 µM | PC-3 > 100 µM | RPMI-8226 > 100 µM | SK-MEL-2 > 100 µM | SN12C > 100 µM | TK-10 > 100 µM | UACC-62 > 100 µM

Cc1c(NC(=O)c2cc([N+](=O)[O-])cc([N+](=O)[O-])c2)c(=O)n(-c2ccccc2)n1C
inactive: A498 > 100 µM | BT-549 > 100 µM | CAKI-1 > 100 µM | DU-145 > 100 µM | HCT-116 > 100 µM | HL-60 > 100 µM | MCF7 61.7 µM | MDA-MB-435 > 100 µM | MDA-N > 100 µM | NCI-H226 > 100 µM | PC-3 49.8 µM | RPMI-8226 > 100 µM | SK-MEL-2 > 100 µM | SN12C > 100 µM | TK-10 > 100 µM | UACC-62 > 100 µM

CC(=O)c1ccc(/N=N/N2CCCC2)cc1
inactive: A498 15.9 µM | ACHN > 100 µM | BT-549 > 100 µM | CAKI-1 > 100 µM | DU-145 > 100 µM | EKVX > 100 µM | HCT-116 > 100 µM | HL-60 29.5 µM | MCF7 > 100 µM | MDA-MB-435 > 100 µM | MDA-N > 100 µM | NCI-H226 > 100 µM | OVCAR-5 > 100 µM | PC-3 > 100 µM | SK-MEL-2 > 100 µM | SN12C > 100 µM | TK-10 > 100 µM | UACC-62 > 100 µM

C=C(C)C(CC=C(C)C)CC12CC(CC=C(C)C)C(C)(C)C(CC=C(C)C)(C(=O)C(Cc3ccc(O)c(O)c3)=C1O)C2=O (stereo not drawn)
inactive: A498 74 µM | ACHN > 100 µM | BT-549 > 100 µM | CAKI-1 > 100 µM | DU-145 > 100 µM | EKVX > 100 µM | HCT-116 > 100 µM | HL-60 > 100 µM | MCF7 > 100 µM | MDA-MB-435 > 100 µM | MDA-N > 100 µM | NCI-H226 > 100 µM | OVCAR-5 > 100 µM | PC-3 > 100 µM | RPMI-8226 > 100 µM | TK-10 > 100 µM | UACC-62 85.3 µM

CC(C)[Si](OC1=CCC[C@H]2NC(=O)[C@@H](Cc3ccccc3)[C@@]12C)(C(C)C)C(C)C
inactive: A498 5.79 µM | ACHN 1.89 µM | BT-549 10.8 µM | CAKI-1 3.85 µM | DU-145 10.2 µM | EKVX 3.74 µM | HCT-116 3.6 µM | HL-60 2.86 µM | MCF7 3.55 µM | MDA-MB-435 4.04 µM | MDA-N 3.95 µM | OVCAR-5 9.44 µM | PC-3 3.37 µM | SK-MEL-2 14.2 µM | SN12C 3.23 µM | TK-10 9.98 µM | UACC-62 8.95 µM

COC(=O)C(NC(=O)C(CC(=O)OC(C)(C)C)NC(=O)OC(C)(C)C)C(O)c1ccccc1 (stereo not drawn)
inactive: A498 > 100 µM | ACHN > 100 µM | BT-549 > 100 µM | CAKI-1 > 100 µM | DU-145 > 100 µM | EKVX > 100 µM | HCT-116 > 100 µM | MCF7 > 100 µM | MDA-MB-435 > 100 µM | MDA-N > 100 µM | NCI-H226 > 100 µM | OVCAR-5 > 100 µM | PC-3 > 100 µM | RPMI-8226 > 100 µM | SK-MEL-2 > 100 µM | SN12C > 100 µM | TK-10 > 100 µM | UACC-62 3.92 µM

CNc1ccc([S+]([O-])Nc2ccc(OC)cc2)cc1 (stereo not drawn)
inactive: A498 > 100 µM | ACHN 32.3 µM | BT-549 2.06 µM | CAKI-1 65.5 µM | DU-145 39.5 µM | EKVX 70.1 µM | HCT-116 66.8 µM | HL-60 54.6 µM | MCF7 79.6 µM | MDA-MB-435 14.2 µM | MDA-N > 100 µM | NCI-H226 > 100 µM | PC-3 > 100 µM | RPMI-8226 > 100 µM | SN12C > 100 µM | TK-10 > 100 µM | UACC-62 > 10 µM

COc1cc2c(cc1OC)-c1[nH]c3ccc(C#N)cc3c1CC(=O)N2
inactive: A498 7.74 µM | ACHN 2.32 µM | BT-549 10.5 µM | CAKI-1 1.56 µM | DU-145 3.33 µM | EKVX 22.2 µM | HL-60 3.07 µM | MCF7 4.71 µM | MDA-MB-435 8.79 µM | MDA-N 2.48 µM | NCI-H226 3.8 µM | OVCAR-5 3.69 µM | PC-3 57.5 µM | SN12C 5.04 µM | TK-10 > 27 µM | UACC-62 > 84.9 µM

Cc1nn(C(=O)c2ccc(Cl)cc2)c2c1C(c1ccc([N+](=O)[O-])cc1)SC(=N)N2 (stereo not drawn)
inactive: ACHN > 10 µM | BT-549 > 10 µM | CAKI-1 > 10 µM | DU-145 > 10 µM | EKVX > 10 µM | HCT-116 > 10 µM | HL-60 > 10 µM | MCF7 > 10 µM | MDA-MB-435 > 10 µM | MDA-N > 10 µM | NCI-H226 > 10 µM | OVCAR-5 > 10 µM | PC-3 > 10 µM | RPMI-8226 > 10 µM | SK-MEL-2 > 10 µM | SN12C > 10 µM | TK-10 > 10 µM | UACC-62 > 10 µM

OCCCCCCCCCCCOc1ccc(C2OCC3(CC=CCC3)CO2)cc1 (stereo not drawn)
inactive: ACHN 17.5 µM | BT-549 15 µM | CAKI-1 17.4 µM | DU-145 16.2 µM | EKVX 10.6 µM | HCT-116 15.8 µM | HL-60 7.29 µM | MCF7 4.88 µM | MDA-MB-435 17.9 µM | MDA-N 15.9 µM | NCI-H226 16.6 µM | OVCAR-5 19.3 µM | PC-3 4.07 µM | RPMI-8226 > 100 µM | SK-MEL-2 38.1 µM | SN12C 15 µM | TK-10 16.9 µM | UACC-62 17.1 µM

CN(/N=C/c1ccnc2ccccc12)c1ccc(Cl)cc1[N+](=O)[O-]
inactive: A498 > 100 µM | ACHN > 100 µM | BT-549 6.95 µM | CAKI-1 > 100 µM | DU-145 > 100 µM | EKVX 12.2 µM | HCT-116 > 100 µM | HL-60 > 100 µM | MCF7 83.9 µM | MDA-MB-435 > 100 µM | MDA-N > 100 µM | NCI-H226 > 100 µM | OVCAR-5 > 100 µM | PC-3 > 100 µM | SK-MEL-2 > 100 µM | SN12C > 100 µM | TK-10 35.6 µM | UACC-62 > 100 µM

NC(=O)C1=NNc2ccccc2C(=O)N1c1ccccc1
inactive: A498 > 100 µM | ACHN > 100 µM | BT-549 > 100 µM | CAKI-1 > 100 µM | DU-145 > 100 µM | EKVX > 100 µM | HCT-116 > 100 µM | MCF7 > 100 µM | MDA-MB-435 > 100 µM | MDA-N > 100 µM | NCI-H226 > 100 µM | OVCAR-5 > 100 µM | PC-3 > 100 µM | RPMI-8226 > 100 µM | SK-MEL-2 > 100 µM | SN12C > 100 µM | TK-10 > 100 µM | UACC-62 > 100 µM

CSc1s[s+]c(SC)c1-c1ccccc1
inactive: A498 19.8 µM | ACHN 16.3 µM | BT-549 13.9 µM | CAKI-1 17.1 µM | DU-145 70.1 µM | EKVX 14.8 µM | HCT-116 15.4 µM | HL-60 28.9 µM | MCF7 17 µM | MDA-MB-435 18.9 µM | MDA-N 16.7 µM | OVCAR-5 15.8 µM | PC-3 21.7 µM | RPMI-8226 19.8 µM | SN12C 16.3 µM | TK-10 15.5 µM | UACC-62 13.4 µM

CO/N=C(\C(=O)Nc1cncs1)c1csc(N)n1
inactive: A498 > 10 µM | ACHN > 10 µM | BT-549 > 10 µM | CAKI-1 > 10 µM | DU-145 > 10 µM | EKVX > 10 µM | HCT-116 > 10 µM | MCF7 > 10 µM | MDA-MB-435 > 10 µM | MDA-N > 10 µM | OVCAR-5 > 10 µM | PC-3 > 10 µM | RPMI-8226 6.27 µM | SN12C > 10 µM | TK-10 > 10 µM | UACC-62 > 10 µM

Cc1ccc(-c2nc(N/N=C/C=C/c3ccccc3)c3ccccc3n2)cc1
inactive: ACHN 19.1 µM | BT-549 23.1 µM | CAKI-1 38.8 µM | DU-145 25.9 µM | EKVX 15 µM | HCT-116 26.6 µM | HL-60 > 100 µM | MCF7 14 µM | MDA-MB-435 52 µM | MDA-N 74.6 µM | NCI-H226 > 100 µM | OVCAR-5 17.4 µM | PC-3 28.6 µM | RPMI-8226 > 100 µM | SK-MEL-2 24.9 µM | SN12C 24.8 µM | TK-10 20 µM | UACC-62 17.1 µM

O=C(O)Cc1ccc(/N=N/c2c(O)c(C(=O)O)cc3ccccc23)cc1
inactive: ACHN > 100 µM | BT-549 > 100 µM | CAKI-1 > 100 µM | DU-145 > 100 µM | EKVX > 100 µM | HCT-116 > 100 µM | HL-60 > 100 µM | MCF7 > 100 µM | MDA-MB-435 > 100 µM | MDA-N > 100 µM | NCI-H226 > 100 µM | OVCAR-5 > 100 µM | PC-3 > 100 µM | RPMI-8226 > 100 µM | SK-MEL-2 > 100 µM | SN12C > 100 µM | TK-10 > 100 µM | UACC-62 > 100 µM

Source: ChEMBL document CHEMBL1201862, “PubChem BioAssay data set” (2004)
